Results: patent US9314471B2, “Methods of preparing pharmaceutical solid state forms” (NeurMedix, Inc., priority 2008, dated 2016)

Columns and labels:
[1] = test system: LNCaP tumor cells; assay: AED-stimulated LNCaP tumor model, effect of dose on tumor incidence; format: in vivo, SCID mice; settings: for mean tumor volume in the animals that developed tumors: 28 days, vehicle 157 mm^3; for tumor incidence (compared to vehicle): daily for 28 days from 24 hours after tumor inoculation
Method: (§1) Castrated SCID mice (six week-old) were implanted with a 5 mg AED, 60-day time-release pellet (Innovative Labs, Sarasota Fla.). After three days, all mice were injected subcutaneously in the right flank with 100 μL of 7.5×10^6 LNCaP tumor cells in phenol red-free RPMI mixed 1:1 with Matrigel. Tumor volumes were measured weekly and calculated as a2×b/2 with a being the width and b the length of the tumor in millimeters (reported as mm^3).
To test the effect of dose on tumor incidence, a total of 48 castrated male SCID mice were implanted with LNCaP tumor cells as described, and the mice were randomly divided into 4 groups of 12 animals each to provide vehicle control (30% cyclodextrin-sulfobutylether in water) group and treatment groups using 4 mg/mouse/day, 1 mg/mouse/day, and 0.4 mg/mouse/day). Treatment groups used a liquid formulation prepared by dissolving a solid state form of 17α-ethynyl-androst-5-ene-3α,17β-diol (Compound 1) in vehicle, which provided 20 mg Compound 1 per mL in 30% cyclodextrin-sulfobutylether in water. The liquid formulation so prepared was administered 24 hours after tumor inoculation as a 200 μL intraperitoneal (ip) injection. All animals were dosed daily for 28 consecutive days and tumor volumes were measured weekly.
(§2) Statistical analysis: Time to first measurable tumor volume was analyzed via Kaplan-Meier product limit estimates, with the exact log-rank test applied to test for the significance of the difference. Reduction of tumor volume is defined as a reduction in volume of at least 20% of the baseline volume, persisting to the end of the study. To detect the difference between active and control group, Fisher's exact test and exact 95% Cl for the difference was applied. A tumor of non-measurable volume is a tumor that, with the methodology at hand, measures 0 to the end of the study. The growth rate of a tumor was also analyzed via the mixed model.

[2] = test system: LNCaP Cells; assay: Annexin V-FITC apoptosis detection in LNCaP cells; format: cell-based; settings: 50 nM, four days
Method: (§3) LNCaP Cells (5×10^5) were seeded in phenol-red free RPMI with 5% hormone depleted charcoal stripped serum (CSS) in 6-well plates and allowed to adhere overnight, then cultured in fetal bovine serum (FBS) or CSS with or without 50 nM Compound 1 for four days. At the end of the incubation period, floating and adherent cells were harvested for cell cycle analysis. LNCaP cells were resuspended in a […] solution of 4,6-diamidino-2-phenylindole (DAPI) and 0.1% NP-40 in a Tris-buffered saline solution (pH 7.0) and analyzed using an Influx cytometer (Cytopiea, Seattle, Wash.). Analyses were performed with MultiCycle software (Phoenix Flow Systems, San Diego, Calif.). The Annexin V-FITC Apoptosis Detection Kit (Calbiochem, La Jolla, Calif.) was used according to the instructions of the manufacturer to detect apoptosis.

[3] = test system: breast tumors induced by the administration of the carcinogen N-methyl-nitrosourea (NMU); assay: MNU stimulated breast tumor model; format: in vivo, Lewis rats
From the text: The following study determined the effect of a formulation prepared with a polymorph of 17α-ethynyl-androst-5-ene-3α,17β-diol (Crystalline Form III of Compound 1) on the rate of growth and incidence of breast tumors induced by the administration of the carcinogen N-methyl-nitrosourea (NMU). Additionally, the activity of Compound 1 was compared to TAMOXIFEN™ ((Z)-2-[4-(1,2-diphenylbut-1-enyl)phenoxy]-N,N-dimethyl-ethanamine), ARIMIDEX™ (anastrozole) and TAXOTERE™ (docetaxel), which are drugs currently used to treat breast cancer.
Seven week old female Lewis rats (150 animals, 104 required for the study) were anesthetized with isoflurane for NMU administration. NMU was the administered ip. at a dose of 50 mg/Kg. Mammary tumors that developed were measured using a vernier caliper with two axes of the tumor measured in cm. Treatment commenced using a liquid formulation of Compound 1, prepared by dissolving crystalline […] in vehicle, when rats have a tumor volume of 0.5 cm×0.5 cm (at about 12-20 week of age). Treatment continued for 28 consecutive days, followed by 28 days of observation.
The experimental groups were Negative control group (no treatment), Vehicle control group (30% cyclodextrin-sulfobutylether in water), two treatment groups (8 mg/rat and 4 mg/rat), three standard therapy groups using an estrogen blocker (TAMOXIFEN™), an aromatase inhibitor (ARIMIDEX™), a cytotoxic agent (TAXOTERE™) and a combination treatment group receiving Compound 1 (8 mg/kg) and TAXOTERE™.

[4] = test system: LNCaP Cells; assay: Cell cycle analysis of LNCaP cells (DAPI, cytometer); format: cell-based; settings: 50 nM, four days, LNCaP cells in FBS or CSS
Method: as §3

[5] = test system: established LNCaP tumors; assay: AED-stimulated LNCaP tumor model, effect on established LNCaP tumors; format: in vivo, SCID mice; settings: 4 mg/mouse/day once a day for three weeks
Method: as §1
To test the effect of a Compound 1 on established LNCaP tumors, 36 castrated SCID mice received AED pellets and were inoculated with LNCaP tumors and monitored as described above. Once the tumors reach 15-25 mm^3, the mice were paired by tumor volume, and each mouse in a pair was assigned to the vehicle or 4 mg/mouse/day Compound 1 group. Animals were dosed once a day for three weeks.
as §2

[6] = Interconversion of crystalline forms in methanol-water (XRPD); format: physicochemical
Method: Form III Compound 1 (77.1 mg) was added to a glass vial, followed by MeOH (0.8 mL) and a stirring bar. The sample was placed in an oil bath at 65° C. and solids completely dissolved. Additional Form III was added so that excess solids remained and the mixture stirred for about 20 minutes. Additional MeOH (0.2 mL) was added and the mixture was hot filtered into a clean vial using a 0.2 μm nylon filter, and the filtrate was then placed in the oil bath at 65° C. Water (1 mL) was added and the mixture cooled to 20° C. over 2 hours. […] Form I was also produced from a slurry of Form III in 1:1 methanol water or 3:1 methanol:water that is seeded with samples having XRPD patterns of Form IV, Form V, Form VI, Form VII and Form VIII and stirred for 5 da at about 65° C. or 7 da at about 5° C.

[7] = Vapor stressing of melt-quenched amorphous Compound 1; format: physicochemical
Method: Amorphous compound 1, with varying degrees of crystallinity was also obtained form melt-quenching Form III according to the following procedure. Form III was lightly crushed with a spatula in a vial that was then placed in an oilbath set at 175° C. A nitrogen stream was run through the vial and the vial kept in the oilbath until the sample had melted. The vial was then removed and quickly placed in a bath containing dry ice with acetone. The sample was placed in a freezer under desiccant and analyzed by XRPD for crystallinity.
The propensity of amorphous material to convert to various crystalline forms was studied by vapor stressing melt-quenched Compound 1, prepared from Form III by the immediately preceding procedure.

[8] = Reanalysis of crystalline forms after prolonged standing; format: physicochemical
From the text: Thus, crystalline Form V of 17α-ethynyl-androstane-3α,17β-diol is an anhydrate (i.e., has no solvent in its crystal structure).
Prior to dissolution of Form VI for NMR analysis, the Form VI sample was washed with CCl4 to remove non-specifically absorbed surface solvent. Proton NMR spectroscopy thus indicates Form VI is a dioxane solvate, which is supported by the DTA/TGA data, and is most likely a mono dioxane solvate based upon integration of the δ 3.64 ppm resonance and the weight loss in TGA. After prolonged standing at ambient temperature and pressure, the Form VI sample was reanalyzed by DTA/TGA and proton NMR. […] Thus, desolvation of Form VI may occur if storage precautions are inadequate and may be accompanied by a polymorphic transition to a more thermodynamically stable form such as Form III.
Thus, crystalline Form VII of 17α-ethynyl-androstane-3α,17β-diol is most likely an anhydrate (i.e., has no solvent in its crystal structure).

Compound: C#C[C@]1(O)CC[C@H]2[C@@H]3CC[C@H]4C[C@H](O)CC[C@]4(C)[C@H]3CC[C@@]21C [Compound 1, 17-Ethynyl-10R,13S-dimethyl-2,3,4,5S,6,7,8R,9S,10,11,12,13,14S,15,16,17-hexadecahydro-1H-cyclopenta[a]phenanthrene-3S,17S-diol]
- mean tumor volume in the animals that developed tumors ([1]; 0.4 mg/mouse/day ip): 34 mm^3
- mean tumor volume in the animals that developed tumors ([1]; 1 mg/mouse/day ip): 4 mm^3
- tumor incidence (compared to vehicle) ([1]; 1 mg/mouse/day ip, p=0.006, n=11): significant reduction in tumor incidence
- mean tumor volume in the animals that developed tumors ([1]; 4 mg/mouse/day ip): 0 mm^3
- tumor incidence (compared to vehicle) ([1]; 4 mg/mouse/day ip, p<0.001, n=12): significant reduction in tumor incidence
- tumor volume ([1]; all three dose groups (4, 1, 0.4 mg/mouse/day ip, 28 days)): decreases in tumor volume apparent
- time to a measurable tumor volume ([1]; three treated groups (4, 1, 0.4 mg/mouse/day ip), p<0.01): statistically significant delay
- percentage of apoptotic LNCaP cells [2]: increase in the percentage of apoptotic LNCaP cells
- time to a new tumor as compared to vehicle ([3]; 28 consecutive days of treatment, 28 days of observation, p<0.001): longer time to a new tumor
- time to new tumor compared with TAXOTERE ([3]; Compound 1 at 4 mg, p=0.042): outperformed TAXOTERE™
- tumor burden by volume compared with vehicle ([3]; Day 7 on: p<0.001): less tumor burden than for the vehicle treated group
- median time to new tumor ([3]; from first day of dosing, vehicle 10 days): at least 56 days
- delay to the occurrence of a second tumor vs vehicle ([3]; from median times to new tumor): at least a five fold delay
- number of cells in G1 [4]: rise in the number of cells in G1
- mice with a tumor that became non-measurable by Day 15 [5]: two
- growth of established tumors (tumor volume) ([5]; tumors 15-25 mm^3 at start, p<0.001 vs vehicle): significantly blocked the growth of tumors
- percent of mice that reduced their tumor volumes by 20% or more ([5]; vs vehicle, p<0.0294): significantly greater percent of mice

Compound: C#C[C@]1(O)CC[C@H]2[C@@H]3CC[C@H]4C[C@H](O)CC[C@]4(C)[C@H]3CC[C@@]21C [Form I, 17α-ethynyl-5α-androstane-3α,17β-diol]
- relative stability of polymorphic forms ([6]; methanol-water, slurry seeded with Forms IV-VIII, 5 da at about 65° C. or 7 da at about 5° C.): most stable polymorphic form in methanol-water

Compound: C#C[C@]1(O)CC[C@H]2[C@@H]3CC[C@H]4C[C@H](O)CC[C@]4(C)[C@H]3CC[C@@]21C [Form III, 17α-ethynyl-5α-androstane-3α,17β-diol]
- relative thermodynamic stability of polymorphic forms ([7]; provided not exposed to methanol-water): most thermodynamically stable polymorphic form
- conversion of crystalline form (XRPD) ([6]; dissolved in MeOH at 65° C., water added, cooled to 20° C. over 2 hours, also slurry in 1:1 or 3:1 methanol:water): has converted to Form I

Compound: C#C[C@]1(O)CC[C@H]2[C@@H]3CC[C@H]4C[C@H](O)CC[C@]4(C)[C@H]3CC[C@@]21C [Form V, 17α-ethynyl-5α-androstane-3α,17β-diol]
- polymorphic transition on prolonged standing (XRPD reanalysis) ([8]; prolonged standing): undergone a polymorphic transition to Form III

Compound: C#C[C@]1(O)CC[C@H]2[C@@H]3CC[C@H]4C[C@H](O)CC[C@]4(C)[C@H]3CC[C@@]21C [Form VI, 17α-ethynyl-5α-androstane-3α,17β-diol]
- desolvation on standing (DTA/TGA reanalysis) ([8]; prolonged standing at ambient temperature and pressure): no TGA weight loss and no desolvation events in DTA

Compound: C#C[C@]1(O)CC[C@H]2[C@@H]3CC[C@H]4C[C@H](O)CC[C@]4(C)[C@H]3CC[C@@]21C [amorphous Compound 1, 17-ethynyl-5α-androstane-3α,17β-diol]
- conversion of amorphous material to crystalline form ([7]; vapor stressing at high humidity): will convert back to Form III
